The values below come from US20250282799A1, “SUBSTITUTED PYRIDO[4,3-d]PYRIMIDINES AS KRAS MODULATORS” (Alterome Therapeutics, Inc., priority 2023, published 2025).

Molecules are shown by their SMILES.

The assay deals with KRAS G12V dependent lung adenocarcinoma cell line, NCI-H441. Kind of assay: Cellular pERK (Thr202/Tyr204) FRET/HTRF assay. The following applies: Homo sapiens. Format: cell-based. A digest of the protocol: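 Using a mix-and-read HTRF kit, phospho-ERK (Thr202/Tyr204) was detected in NCI-H441 lysates following 1 hr compound incubation at 37 °C, 5% CO2. Cells had been seeded overnight beforehand, and IC50 was derived by curve fitting.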

Where [1] appears, read: NCI-H441, cellular pERK (Thr202/Tyr204) HTRF, NCI-H441 cells.
[2] abbreviates: NCI-H441, pERK HTRF, NCI-H441 cells (KRAS G12V).

Regarding `[2H]C([2H])(Oc1nc(N2CCOC[C@H]3[C@H](F)[C@H]32)c2cnc(-c3cc(N)cc4ccc(F)c(C#C)c34)c(F)c2n1)[C@@]12CCCN1C[C@@H](Cl)C2` (single isomer, unassigned) [Example 237], the IC50 under setting [1] is under 50 nM.
Same read-out and setting: as for `[2H]C([2H])(Oc1nc(N2CCOC[C@H]3[C@H](F)[C@H]32)c2cnc(-c3cc(N)cc4ccc(F)c(C#C)c34)c(F)c2n1)[C@@]12CCCN1C[C@H](Cl)C2` (single isomer, unassigned) [Example 238], the figure is under 50 nM.
Still for that read-out and setting: as for `C#Cc1c(F)ccc2cc(N)cc(-c3ncc4c(N5CCOC[C@H]6[C@H](F)[C@H]65)nc(OC[C@]56C[C@@H](C)CN5CCC65CC5)nc4c3F)c12` (single isomer, unassigned) [Example 242], the figure is under 50 nM; as for `C#Cc1c(F)ccc2cc(N)cc(-c3ncc4c(N5CCOC[C@H]6[C@H](F)[C@H]65)nc(OC[C@@]56C[C@H](C)CN5CCC65CC5)nc4c3F)c12` (single isomer, unassigned) [Example 243], under 50 nM; as for `C#Cc1c(F)ccc2cc(N)cc(-c3ncc4c(N5CCOC[C@H]6[C@H](F)[C@H]65)nc(OC[C@]56C[C@H](C)CN5CCC65CC5)nc4c3F)c12` (single isomer, unassigned) [Example 251], under 50 nM.
As for `C#Cc1c(F)ccc2cc(N)cc(-c3ncc4c(N5CCOC[C@H]6[C@H](F)[C@H]65)nc(OC[C@@]56CCCN5C[C@@]5(C[C@@H]5F)C6)nc4c3F)c12` (single isomer, unassigned) [Example 252], the IC50 under setting [1] was under 50 nM.
On the same count and under the same terms, as for `C#Cc1c(F)ccc2cc(N)cc(-c3ncc4c(N5CCOC[C@H]6[C@H](F)[C@H]65)nc(OC[C@@]56CCCN5C[C@@]5(C[C@H]5F)C6)nc4c3F)c12` (single isomer, unassigned) [Example 253], the figure is under 50 nM.
On to `C#Cc1c(F)ccc2cc(N)cc(-c3ncc4c(N5CCOC[C@H]6[C@H](F)[C@H]65)nc(OC[C@@]56CCCN5C[C@]5(C[C@H]5F)C6)nc4c3F)c12` (single isomer, unassigned) [Example 254], for which, under setting [1], the IC50 is under 50 nM.
On the same count and under the same terms, as for `C#Cc1c(F)ccc2cc(N)cc(-c3ncc4c(N5CCOC[C@H]6[C@H](F)[C@H]65)nc(OC[C@@]56CCCN5C[C@]5(C[C@@H]5F)C6)nc4c3F)c12` (single isomer, unassigned) [Example 255], the figure is under 50 nM.
Still for that read-out and setting: as for `[2H]C([2H])(Oc1nc(N2CCOC[C@H]3[C@H](F)[C@H]32)c2cnc(-c3cc(N)cc4ccc(F)c(C#C)c34)c(F)c2n1)[C@@]12CCCN1C[C@@H](CF)C2` (single isomer, unassigned) [Example 265], the figure is under 50 nM.
For `[2H]C([2H])(Oc1nc(N2CCOC[C@H]3[C@H](F)[C@H]32)c2cnc(-c3cc(N)cc4ccc(F)c(C#C)c34)c(F)c2n1)[C@@]12CCCN1C[C@H](CF)C2` (single isomer, unassigned) [Example 266], the IC50 under setting [1] was under 50 nM.
On the same count and under the same terms, as for `[2H]C1([2H])CC[C@@]2(C([2H])([2H])Oc3nc(N4CCOC[C@H]5[C@H](F)[C@H]54)c4cnc(-c5cc(N)cc6ccc(F)c(C#C)c56)c(F)c4n3)C[C@@]3(C[C@H]3F)CN12` (single isomer, unassigned) [Example 274], the figure is under 50 nM; as for `[2H]C1([2H])CC[C@@]2(C([2H])([2H])Oc3nc(N4CCOC[C@H]5[C@H](F)[C@H]54)c4cnc(-c5cc(N)cc6ccc(F)c(C#C)c56)c(F)c4n3)C[C@@]3(C[C@@H]3F)CN12` (single isomer, unassigned) [Example 275], under 50 nM; as for `[2H]C([2H])(Oc1nc(N2CCOC[C@H]3[C@H](F)[C@H]32)c2cnc(-c3cc(N)cc4ccc(F)c(C#C)c34)c(F)c2n1)[C@@]12CCCN1C[C@]1(C[C@H]1F)C2` (single isomer, unassigned) [Example 312], under 50 nM.
Compound `[2H]C([2H])(Oc1nc(N2CCOC[C@H]3[C@H](F)[C@H]32)c2cnc(-c3cc(N)cc4ccc(F)c(C#C)c34)c(F)c2n1)[C@@]12CCCN1C[C@]1(C[C@@H]1F)C2` (single isomer, unassigned) [Example 313] came in with an IC50 under setting [1] of under 50 nM.
Still for that read-out and setting: as for `[2H]C([2H])(Oc1nc(N2CCOC[C@H]3[C@H](F)[C@H]32)c2cnc(-c3cc(N)cc4ccc(F)c(C#C)c34)c(F)c2n1)[C@@]12CCCN1C[C@@H](CC#N)C2` (single isomer, unassigned) [Example 314], the figure is under 50 nM.
`[2H]C([2H])(Oc1nc(N2CCOC[C@H]3[C@H](F)[C@H]32)c2cnc(-c3cc(N)cc4ccc(F)c(C#C)c34)c(F)c2n1)[C@@]12CCCN1C[C@H](CC#N)C2` (single isomer, unassigned) [Example 315]: under setting [1], the IC50 was under 50 nM.
The same measure, in the same setting: as for `[2H]C([2H])(Oc1nc(N2CCOC[C@@H]3C(F)[C@@H]32)c2cc(F)c(-c3cc(N)cc(C)c3C(F)(F)F)c(F)c2n1)[C@@]12CCCN1C[C@H](F)C2` (stereo in doubt) [Example 170, 3-(6,8-difluoro-4-((1R,7R,8R)-8-fluoro-5-oxa-2-azabicyclo[5.1.0]octan-2-yl)-2-(((2R,7aS)-2-fluorotetrahydro-1H-pyrrolizin-7a(5H)-yl)methoxy-d2)quinazolin-7-yl)-5-methyl-4-(trifluoromethyl)aniline], the figure is 500 to 10000 nM.
Still for that read-out and setting: the result for `[2H]C([2H])(Oc1nc(N2CC[C@H](C#N)C[C@@H]3[C@H](F)[C@@H]32)c2cnc(-c3cc(N)cc4ccc(F)c(C#C)c34)c(F)c2n1)[C@@]12CCCN1C[C@H](F)C2` (stereo in doubt) [Example 309, (1R,SR,7S,8S)-2-(7-(3-amino-8-ethynyl-7-fluoronaphthalen-1-yl)-8-fluoro-2-(((2R,7aS)-2-fluorotetrahydro-1H-pyrrolizin-7a(5H)-yl)methoxy-d2)pyrido[4,3-d]pyrimidin-4-yl)-8-fluoro-2-azabicyclo[5.1.0]octane-5-carbonitrile] reads 50 to 500 nM.
For the compound `C#Cc1c(F)ccc2cc(O)cc(-c3ncc4c(N5CCCC[C@@H]6C[C@@H]65)nc(OC[C@@]56CCCN5C[C@H](F)C6)nc4c3F)c12` [Example 1, 4-(4-((1S,7R)-2-Azabicyclo[5.1.0]octan-2-yl)-8-fluoro-2-(((2R,7aS)-2-fluorotetrahydro-1H-pyrrolizin-7a(5H)-yl)methoxy)pyrido[4,3-d]pyrimidin-7-yl)-5-ethynyl-6-fluoronaphthalen-2-ol], the IC50 under setting [2] was 500 to 10000 nM.
On the same count and under the same terms, the result for `C#Cc1c(F)ccc2cc(O)cc(-c3ncc4c(N5CCCC[C@H]6C[C@H]65)nc(OC[C@@]56CCCN5C[C@H](F)C6)nc4c3F)c12` [Example 2, 4-(4-((1R,7S)-2-azabicyclo[5.1.0]octan-2-yl)-8-fluoro-2-(((2R,7aS)-2-fluorotetrahydro-1H-pyrrolizin-7a(5H)-yl)methoxy)pyrido[4,3-d]pyrimidin-7-yl)-5-ethynyl-6-fluoronaphthalen-2-ol] reads under 50 nM.
On the same count and under the same terms, the result for `C#Cc1c(F)ccc2cc(O)cc(-c3ncc4c(N5CCC6CC6CC5)nc(OC[C@@]56CCCN5C[C@H](F)C6)nc4c3F)c12` (stereo partly drawn) [Example 3, 4-(4-(4-Azabicyclo[5.1.0]octan-4-yl)-8-fluoro-2-(((2R,7aS)-2-fluorotetrahydro-1H-pyrrolizin-7a(5H)-yl)methoxy)pyrido[4,3-d]pyrimidin-7-yl)-5-ethynyl-6-fluoronaphthalen-2-ol] reads under 50 nM; that for `C#Cc1c(F)ccc2cc(N)cc(-c3ncc4c(N5CCCC[C@@H]6C[C@@H]65)nc(OC[C@@]56CCCN5C[C@H](F)C6)nc4c3F)c12` [Example 4, 4-(4-((1S,7R)-2-azabicyclo[5.1.0]octan-2-yl)-8-fluoro-2-(((2R,7aS)-2-fluorotetrahydro-1H-pyrrolizin-7a(5H)-yl)methoxy)pyrido[4,3-d]pyrimidin-7-yl)-5-ethynyl-6-fluoronaphthalen-2-amine], 500 to 10000 nM; that for `C#Cc1c(F)ccc2cc(O)cc(-c3ncc4c(N5CCCCC6C5C6(F)F)nc(OC[C@@]56CCCN5C[C@H](F)C6)nc4c3F)c12` (stereo partly drawn) [Example 6, 4-(4-(8,8-Difluoro-2-azabicyclo[5.1.0]octan-2-yl)-8-fluoro-2-(((2R,7aS)-2-fluorotetrahydro-1H-pyrrolizin-7a(5H)-yl)methoxy)pyrido[4,3-d]pyrimidin-7-yl)-5-ethynyl-6-fluoronaphthalen-2-ol], under 50 nM.
Still for that read-out and setting: the result for `[2H]C([2H])(Oc1nc(N2CCCC[C@@H]3C[C@@H]32)c2cnc(-c3cc(N)cc4cc(F)c(F)c(C#C)c34)c(F)c2n1)[C@@]12CCCN1C[C@H](F)C2` [Example 7, 4-(4-((1S,7R)-2-Azabicyclo[5.1.0]octan-2-yl)-8-fluoro-2-(((2R,7aS)-2-fluorotetrahydro-1H-pyrrolizin-7a(5H)-yl)methoxy-d2)pyrido[4,3-d]pyrimidin-7-yl)-5-ethynyl-6,7-difluoronaphthalen-2-amine] reads 500 to 10000 nM; that for `[2H]C([2H])(Oc1nc(N2CCC3CC3CC2)c2cnc(-c3cc(N)cc4cc(F)c(F)c(C#C)c34)c(F)c2n1)[C@@]12CCCN1C[C@H](F)C2` (stereo partly drawn) [Example 9, 4-(4-(4-Azabicyclo[5.1.0]octan-4-yl)-8-fluoro-2-(((2R,7aS)-2-fluorotetrahydro-1H-pyrrolizin-7a(5H)-yl)methoxy-d2)pyrido[4,3-d]pyrimidin-7-yl)-5-ethynyl-6,7-difluoronaphthalen-2-amine], 50 to 500 nM.
As to `[2H]C([2H])(Oc1nc(N2CCCO[C@H]3C[C@H]32)c2cnc(-c3cc(O)cc4ccc(F)c(C#C)c34)c(F)c2n1)[C@@]12CCCN1C[C@H](F)C2` [Example 10, 4-(4-((1S,7R)-2-Oxa-6-azabicyclo[5.1.0]octan-6-yl)-8-fluoro-2-(((2R,7aS)-2-fluorotetrahydro-1H-pyrrolizin-7a(5H)-yl)methoxy-d2)pyrido[4,3-d]pyrimidin-7-yl)-5-ethynyl-6-fluoronaphthalen-2-ol], the IC50 under setting [2] was under 50 nM.
